In test [1] the target is T1, Hyal1 (Homo sapiens, UniProt Q12794).
T1 sequence (Q12794 22-435): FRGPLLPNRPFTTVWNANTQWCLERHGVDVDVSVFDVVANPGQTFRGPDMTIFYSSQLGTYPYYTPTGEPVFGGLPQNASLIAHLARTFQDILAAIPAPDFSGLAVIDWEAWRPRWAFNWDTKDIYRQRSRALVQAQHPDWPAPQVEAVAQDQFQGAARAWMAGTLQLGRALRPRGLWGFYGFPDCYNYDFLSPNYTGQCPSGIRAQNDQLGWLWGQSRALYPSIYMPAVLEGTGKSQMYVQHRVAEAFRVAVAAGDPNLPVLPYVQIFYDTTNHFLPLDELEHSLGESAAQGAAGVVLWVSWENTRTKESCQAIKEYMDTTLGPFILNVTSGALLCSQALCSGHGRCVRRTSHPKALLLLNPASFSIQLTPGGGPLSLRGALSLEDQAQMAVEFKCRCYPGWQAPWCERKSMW
The test is described as follows: Stains-all HA degradation assay with surface-displayed Hyal1 on E. coli cells, pH […] (incomplete curve; assay impaired beyond […]). Type of test: cell-based.

Test [2] addresses T1, Hyal1. The test can be described thus: Stains-all HA degradation assay with surface-displayed Hyal1 on E. coli cells, pH […]. Type of test: cell-based.

`O=C(/C=C/c1ccc(O)c(O)c1)O[C@@H](C(=O)O)[C@@H](OC(=O)/C=C/c1ccc(O)c(O)c1)C(=O)O` [chicoric acid] returned an IC50 on Hyal1 [1] of 171 µM.

Regarding `CCC(=O)O[C@H]1CC[C@H]2[C@@H]3CCC4=CC(=O)CC[C@]4(C)[C@H]3CC[C@]12C` [testosterone propionate], the IC50 against Hyal1 [2] stood at 124 ± 1.1 µM.

As usually defined, the IC50 is the concentration that inhibits the measured activity by half. Read a low IC50 as greater potency.

Source of the values: publication PMC7243119, “Improved Surface Display of Human Hyal1 and Identification of Testosterone Propionate and Chicoric Acid as New Inhibitors” (Pharmaceuticals, 2020).
